Measured values: US8802597B2, “Herbicidal pyrimidines” (E I du Pont de Nemours and Company, priority 2003, dated 2014)

Columns and labels:
Assay in all cases: Test C pre/postemergence
Assay type in all cases: in vivo
[1] = tested on: Surinam grass (Brachiaria decumbens); conditions: Urochloa decumbens, pre-emergence, Preemergence, read-out: Plant response rating, Surinam Grass
In short: (§1)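 Percent control is a visual rating (0 none, 100 complete) taken against untreated plants after 12 to 14 days of greenhouse growth. Applications were made preemergence to seeded pots and postemergence to plants at the 1- to 4-leaf stage, in a non-phytotoxic surfactant-containing solvent.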

[2] = tested on: common (oilseed) sunflower (Helianthus annuus); conditions: Helianthus annuus, pre-emergence, Preemergence, read-out: Plant response rating, Sunflower
In short: as §1

[3] = tested on: soybean (Glycine max); conditions: Glycine max, pre-emergence, Preemergence, read-out: Plant response rating, Soybean
In short: as §1

[4] = tested on: kochia (Kochia scoparia); conditions: Bassia scoparia, pre-emergence, Preemergence, read-out: Plant response rating, Kochia
In short: as §1

[5] = tested on: pigweed (Amaranthus retroflexus); conditions: Amaranthus retroflexus, pre-emergence, Preemergence, read-out: Plant response rating, Pigweed
In short: as §1

[6] = tested on: morningglory (Ipomoea coccinea); conditions: Ipomoea, pre-emergence, Preemergence, read-out: Plant response rating, Morningglory
In short: as §1

[7] = tested on: giant foxtail (Setaria faberii); conditions: Setaria faberi, pre-emergence, Preemergence, read-out: Plant response rating, Foxtail, Giant
In short: as §1

[8] = tested on: bermudagrass (Cynodon dactylon); conditions: Cynodon dactylon, pre-emergence, Preemergence, read-out: Plant response rating, Bermudagrass
In short: as §1

[9] = tested on: woolly cupgrass (Eriochloa villosa); conditions: Eriochloa villosa, pre-emergence, Preemergence, read-out: Plant response rating, Cupgrass, Woolly
In short: as §1

[10] = tested on: goosegrass (Eleusine indica); conditions: Eleusine indica, pre-emergence, Preemergence, read-out: Plant response rating, Goosegrass
In short: as §1

[11] = tested on: johnsongrass (Sorghum halepense); conditions: Sorghum halepense, pre-emergence, Preemergence, read-out: Plant response rating, Johnsongrass
In short: as §1

[12] = 62 g ai/ha, scale 0 to 100, 0 no effect, 100 complete control

Compound: Nc1nc(C2CC2)nc(C=O)c1Br [Compound 26]
- pest or weed control at 62 g/ha [1, 12]: 0%
- pest or weed control at 125 g/ha ([1]; 125 g ai/ha, scale 0 to 100): 0%
- pest or weed control at 250 g/ha ([1]; 250 g ai/ha, scale 0 to 100): 10%
- pest or weed control at 500 g/ha ([1]; 500 g ai/ha, scale 0 to 100): 10%
- pest or weed control at 62 g/ha [2, 12]: 0%
- pest or weed control at 125 g/ha ([2]; 125 g ai/ha, scale 0 to 100): 20%
- pest or weed control at 250 g/ha ([2]; 250 g ai/ha, scale 0 to 100): 70%
- pest or weed control at 500 g/ha ([2]; 500 g ai/ha, scale 0 to 100): 90%
- plant injury at 62 g/ha [3, 12]: 0%
- plant injury at 125 g/ha ([3]; 125 g ai/ha, scale 0 to 100): 10%
- plant injury at 250 g/ha ([3]; 250 g ai/ha, scale 0 to 100): 10%
- plant injury at 500 g/ha ([3]; 500 g ai/ha, scale 0 to 100): 20%
- pest or weed control at 62 g/ha [4, 12]: 0%
- pest or weed control at 500 g/ha ([4]; 500 g ai/ha, scale 0 to 100): 50%
- pest or weed control at 62 g/ha [5, 12]: 30%
- pest or weed control at 125 g/ha ([5]; 125 g ai/ha, scale 0 to 100): 100%
- pest or weed control at 250 g/ha ([5]; 250 g ai/ha, scale 0 to 100): 100%
- pest or weed control at 500 g/ha ([5]; 500 g ai/ha, scale 0 to 100): 100%
- pest or weed control at 62 g/ha [6, 12]: 0%
- pest or weed control at 125 g/ha ([6]; 125 g ai/ha, scale 0 to 100): 5%
- pest or weed control at 250 g/ha ([6]; 250 g ai/ha, scale 0 to 100): 85%
- pest or weed control at 500 g/ha ([6]; 500 g ai/ha, scale 0 to 100): 90%
- pest or weed control at 62 g/ha [7, 12]: 0%
- pest or weed control at 125 g/ha ([7]; 125 g ai/ha, scale 0 to 100): 0%
- pest or weed control at 250 g/ha ([7]; 250 g ai/ha, scale 0 to 100): 0%
- pest or weed control at 500 g/ha ([7]; 500 g ai/ha, scale 0 to 100): 10%
- pest or weed control at 62 g/ha [8, 12]: 0%
- pest or weed control at 125 g/ha ([8]; 125 g ai/ha, scale 0 to 100): 0%
- pest or weed control at 250 g/ha ([8]; 250 g ai/ha, scale 0 to 100): 0%
- pest or weed control at 500 g/ha ([8]; 500 g ai/ha, scale 0 to 100): 0%
- pest or weed control at 62 g/ha [9, 12]: 0%
- pest or weed control at 125 g/ha ([9]; 125 g ai/ha, scale 0 to 100): 0%
- pest or weed control at 250 g/ha ([9]; 250 g ai/ha, scale 0 to 100): 0%
- pest or weed control at 500 g/ha ([9]; 500 g ai/ha, scale 0 to 100): 0%
- pest or weed control at 62 g/ha [10, 12]: 0%
- pest or weed control at 125 g/ha ([10]; 125 g ai/ha, scale 0 to 100): 0%
- pest or weed control at 250 g/ha ([10]; 250 g ai/ha, scale 0 to 100): 0%
- pest or weed control at 500 g/ha ([10]; 500 g ai/ha, scale 0 to 100): 0%
- pest or weed control at 62 g/ha [11, 12]: 0%
- pest or weed control at 250 g/ha ([11]; 250 g ai/ha, scale 0 to 100): 0%
- pest or weed control at 500 g/ha ([11]; 500 g ai/ha, scale 0 to 100): 100%
